# According to EP2366431A1, “Myeloperoxidase as a target in atrial fibrillation” (Universitätsklinikum Hamburg-Eppendorf, priority 2010, dated 2011):
# What was measured:
# WT and Mpo^-/- mice [1] = assay: Electrophysiological investigation (EPI), induction of AF by right atrial stimulation, surface ECG; format: in vivo
# Experimental: (§1) Angiotensin II and myeloperoxidase treatment of mice. We treated male C57BL/6J (WT) and MPOtmllus mice (Mpo^-/^-) on a C57BL/6 background, aged 12-15 weeks, via ALZET osmotic pumps with angiotensin II (AngII, 1.5 ng/g body weight/minute) or saline (vehicle) for 14 days prior to electrophysiological investigation (EPI). We treated another cohort of WT and Mpo^-/- mice via ALZET osmotic pumps with a connected jugular catheter with recombinant MPO (5.0, 12.5 and 50 pg/g body weight/minute, which we calculated to generate physiological plasma levels of MPO ranging between 100 and 1100 pM, respectively) or recombinant human serum albumin (HSA) for 7 days in combination with either AngII or saline prior to EPI. Animal experiments, conformed with the Guide for the Care and Use of Laboratory Animals published by the US National Institutes of Health and were approved by the review board of Hamburg and Bonn.
# Electrophysiological investigation (EPI). We examined mice electrophysiologically using a single catheter technique ^19,32. We analyzed standard ECG-parameters obtained by a 6-lead-surface-ECG. EPI included transvenous atrial and ventricular recording and stimulation^21. For induction of AF, we performed atrial and ventricular burst and programmed atrial stimulations. We defined atrial fibrillation as rapid and fragmented atrial electrograms with irregular AV-nodal conduction for >1 s. AF-episodes persisting >1 min were classified as sustained AF. Number, duration, and probability of inducible AF-episodes were analyzed.
# WT and Mpo^-/- mice [2] = assay: Radiotelemetric blood pressure measurements; format: in vivo; conditions: AngII, Mpo^-/- mice compared with WT mice
# Experimental: as §1
# Radiotelemetric blood pressure measurements. We performed blood pressure measurements as previously^36. In brief, we inserted the tip of the telemetry device (TA11 PA-C10; Data Sciences International, St. Paul, USA) into the carotid lumen. After 10 days, data acquisition started for 1 minute every 5 minutes for 3 days. […] We recorded blood pressure and heart rate for the following week in MPO treated mice and two weeks in AngII treated animals, respectively.
# WT mice = assay: MPO content in mouse plasma and atrial tissue (ELISA) after angiotensin II infusion; format: in vivo; conditions: 2 week subcutaneous infusion of AngII
# Experimental: as §1
# Assessment of MPO content in human and mouse plasma and atrial tissue. We determined MPO levels by ELISA (human: Prognostix, Cleveland, USA; mouse: hycult biotechnology, The Netherlands).
# [3] = tested on: Langendorff perfused hearts from WT and Mpo^-/- mice; assay: Epicardial mapping of Langendorff-perfused hearts; conditions: atria from AngII treated Mpo^-/- mice, in contrast to AngII challenged WT mice
# Experimental: as §1
# Epicardial mapping of Langendorff-perfused hearts. We determined spontaneous and stimulated myocardial conduction velocities and characteristics of Langendorff perfused hearts by epicardial activation mapping using a 128-electrodearray^21.
substance,measurement,setting,value
"angiotensin II (DRVYIHPF; Angiotensin-2; UniProt P01019 25-32, looked up) [AngII]",inducibility of AF,"WT and Mpo^-/- mice [1]; Mpo^-/- mice, AngII for 14 days",did not affect the inducibility of AF
same,"susceptibility for AF (number and duration of AF-episodes, probability of AF induction)","WT and Mpo^-/- mice [1]; WT mice, AngII for 14 days, right atrial electrophysiological stimulation",higher susceptibility for AF
same,P wave duration,"WT and Mpo^-/- mice [1]; WT mice, AngII treatment, in vivo surface ECG, p<0.001",significant prolongation
same,blood pressure elevating effect,WT and Mpo^-/- mice [2],blunted
same,myocardial deposition of MPO,WT mice,elevated
same,circulating MPO plasma levels,WT mice; 1.5 ng/g body weight/minute,substantially increased
same,conduction velocity,[3],no retardation in conduction velocity
